Reference: US6756208B2, “Plasma glucosylceramide deficiency as risk factor for thrombosis and modulator of anticoagulant protein C” (priority 2001, dated 2004)
Entries after “also recorded” stand apart in the source; their conditions may differ.

Experiments:
[1] = system: APC:protein S; test: Factor Xa-1-stage clotting assays without addition of exogenous lipids; type: biochemical; conditions: presence versus absence of APC:protein S; data not shown
[2] = biological target: T1, factor Va (Homo sapiens, UniProt P12259); test: Factor Va inactivation by APC/protein S with 1, 5 or 10% glycolipid in PC/PS vesicles (Example 7); type: biochemical; conditions: for enhancement of factor Va inactivation by APC/protein S: APC 0.16 nM, 5 min; for effect on factor Va inactivation by APC:protein S, glycolipid incorporated into PC/PS vesicles (overall statement): glycolipid content not specified
T1 construct: APC cleaves the heavy chain of factor Va at Arg506, and then Arg306, and perhaps Arg679
T1 sequence (P12259 29-737 limits assumed): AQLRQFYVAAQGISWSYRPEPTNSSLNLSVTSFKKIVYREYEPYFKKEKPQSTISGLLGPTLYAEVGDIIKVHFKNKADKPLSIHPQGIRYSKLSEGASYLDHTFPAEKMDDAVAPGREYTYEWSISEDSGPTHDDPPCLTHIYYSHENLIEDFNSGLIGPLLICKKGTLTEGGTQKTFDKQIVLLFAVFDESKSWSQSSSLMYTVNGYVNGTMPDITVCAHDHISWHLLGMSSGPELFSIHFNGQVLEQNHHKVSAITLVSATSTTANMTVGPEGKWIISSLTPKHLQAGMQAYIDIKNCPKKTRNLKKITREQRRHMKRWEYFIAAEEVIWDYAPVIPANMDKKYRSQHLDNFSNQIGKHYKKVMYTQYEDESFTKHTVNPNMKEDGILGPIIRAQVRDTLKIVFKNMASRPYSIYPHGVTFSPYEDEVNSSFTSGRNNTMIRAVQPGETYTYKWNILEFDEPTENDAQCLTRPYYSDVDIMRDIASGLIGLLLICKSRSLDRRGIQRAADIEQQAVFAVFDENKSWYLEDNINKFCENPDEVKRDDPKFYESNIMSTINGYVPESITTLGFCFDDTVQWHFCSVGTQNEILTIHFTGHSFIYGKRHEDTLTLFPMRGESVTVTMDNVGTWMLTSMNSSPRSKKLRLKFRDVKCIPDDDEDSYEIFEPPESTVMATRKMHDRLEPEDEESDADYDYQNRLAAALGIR
T1 sequence (P12259 1574-2224 limits assumed): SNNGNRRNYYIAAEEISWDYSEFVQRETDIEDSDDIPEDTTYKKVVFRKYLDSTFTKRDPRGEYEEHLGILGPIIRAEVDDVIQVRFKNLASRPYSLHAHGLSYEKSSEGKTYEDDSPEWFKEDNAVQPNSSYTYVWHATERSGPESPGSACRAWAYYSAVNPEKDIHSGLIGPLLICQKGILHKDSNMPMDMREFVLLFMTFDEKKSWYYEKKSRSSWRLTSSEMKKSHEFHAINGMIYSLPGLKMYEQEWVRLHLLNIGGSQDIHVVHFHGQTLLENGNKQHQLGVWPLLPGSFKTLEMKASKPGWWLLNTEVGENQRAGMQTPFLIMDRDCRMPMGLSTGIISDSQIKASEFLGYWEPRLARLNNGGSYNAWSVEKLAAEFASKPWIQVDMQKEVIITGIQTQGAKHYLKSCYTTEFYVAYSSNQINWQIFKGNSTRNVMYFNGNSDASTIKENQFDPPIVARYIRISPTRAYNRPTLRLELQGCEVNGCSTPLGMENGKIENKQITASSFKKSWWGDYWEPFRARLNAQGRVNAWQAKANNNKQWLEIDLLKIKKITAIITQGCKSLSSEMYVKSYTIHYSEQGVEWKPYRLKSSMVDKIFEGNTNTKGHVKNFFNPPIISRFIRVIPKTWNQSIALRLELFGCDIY
Experimental: FIGS. 6A-6E. Anticoagulant response of plasma to APC/protein S is enhanced by addition of glycolipids. Purified factor Va (1.5 nM) was incubated with APC (0.16 nM final)/protein S (18 nM final) and varying lipid vesicles to allow factor Va inactivation for five minutes and then the residual factor Va activity was determined using prothrombin time clotting assays.
Purified factor Va (1.5 nM) was incubated with APC (0.16 nM final)/protein S (18 nM final) and varying lipids vesicles to allow factor Va inactivation for 5 min., and then the residual factor Va activity was determined using prothrombin time clotting assays.

[3] = system: APC:protein S; test: Modified dilute prothrombin time clotting assay with glycolipid vesicles added to normal plasma; type: biochemical, human; conditions: for anticoagulant response of plasma to APC:protein S (clotting time prolongation, modified PT assay): glycolipid vesicles added to normal plasma, APC plus protein S present; for effect on baseline clotting times: without APC or protein S added; for effect on APC:protein S anticoagulant response: 0-100 mg/ml
Experimental: Anticoagulant response to APC:protein S. Modified dilute prothrombin time based assays were performed as previously described. Briefly, 7.5 μl of test plasma was mixed with fibrinogen (0.6 mg/ml final concentration) and APC (8.7 nM final) plus protein S (28 nM final) or buffer, and incubated 3 min at 37° C. (100 μl total volume). Clotting times were measured after addition of 50 μl of recombinant human tissue factor (Innovin from DADE, Miami, Fla.) diluted 1:40 in Tris (tris[hydroxymethyl] aminomethane)-buffered saline containing 0.5% bovine serum albumin (TBSA) and 30 mM CaCl2. Baseline clotting times without addition of APC:protein S were also determined. For studies of the effects of glycolipid vesicles or glucocerebrosidase treatment on clotting assays, a 1:64 dilution of Innovin was used in the presence or absence of APC and protein S. In the study of the effect of glucocerebrosidase, 13 nM APC and 42 nM protein S were employed.
Preparation of glycolipid vesicles. To prepare extruded glycolipid vesicles, dried glycolipids GlcCer, Gb3Cer, galactosylceramide (GalCer) (Sigma), and LacCer were suspended at 100 μg/ml in TBS at room temperature, vortexed 5 min, and passed through a 0.2 μm filter (Osmonics, Livermore, Calif.). Concentrations of glycolipids recovered after filtration were determined by HPLC analysis as described above.

[4] = biological target: T1, factor Va; test: Factor Va inactivation assay with purified proteins (GlcCer vesicles and multicomponent PC/PS/GlcCer vesicles); type: biochemical
Experimental: Large unilamellar multicomponent vesicles were prepared generally as described. (27) Appropriate aliquots of PC, PS and GlcCer were mixed and dried under nitrogen. The lipid mixture was hydrated at a concentration of 6.25 mM lipid in TBS and freeze-thawed 10 times using liquid nitrogen, and the solution of vesicles was passed 15 times through a 0.2 μm filter (Millipore). Concentrations of glycolipid recovered after filtration were determined by HPLC analysis as described above. PC concentration was determined by an enzymatic […] method (Phospholipids B kit, Wako Chemical USA, Inc., Richmond, Va.).
Factor Va inactivation assay. To study the time course of factor Va inactivation by APC:protein S, mixtures containing GlcCer vesicles or control PC vesicles (21.5 μM) or buffer, APC (6 nM final), protein S (18 nM final), and factor Va (1.5 nM) with 5 mM CaCl2 were incubated at 37° C. Aliquots were withdrawn at various times and the reaction was quenched by adding ethylenediamine tetraacetic acid (EDTA) prior to determination of residual factor Va activity. […] The residual factor Va activity was quantitated using prothrombin time clotting assays and standard log-log calibration curves of clotting time versus factor Va concentration generated using purified factor Va and factor V deficient plasma. […]

[5] = 1% glycolipid in PC/PS vesicles
[6] = 5% glycolipid in PC/PS vesicles
[7] = 10% glycolipid in PC/PS vesicles

glucosylceramide [GlcCer]
clotting time prolongation in factor Xa-1-stage assays [1]: clotting time prolongation in the presence but not absence of APC:protein S
enhancement of factor Va inactivation by APC/protein S [2, 5]: little enhancement effect
factor Va inactivation reached [2, 6]: up to 60%
enhancement of factor Va inactivation by APC/protein S [2, 6]: enhanced inactivation of factor Va much more
concentration from which the enhancement effect was observed ([2]; 5 and 10% GlcCer in PC/PS vesicle): ≥ 1 µg/mL
factor Va inactivation reached [2, 7]: up to 60%
enhancement of factor Va inactivation by APC/protein S [2, 7]: enhanced inactivation of factor Va much more
effect on factor Va inactivation by APC:protein S, glycolipid incorporated into PC/PS vesicles (overall statement) [2]: significantly directly enhance inactivation
clotting time prolongation, modified PT assay ([3]; APC alone added without protein S): much less clotting time prolongation
anticoagulant response of plasma to APC:protein S (clotting time prolongation, modified PT assay) [3]: dose-dependent marked prolongation; also recorded: dose-dependently enhances the anticoagulant response; also recorded: dose-dependently enhanced this anticoagulant response; also recorded: very active
effect on clotting times, modified PT assay ([3]; protein S alone added in the absence of APC, data not shown): no effect on clotting times
effect on baseline clotting times [3]: without affecting baseline clotting time
inactivation of purified factor Va by APC:protein S (overall statement) [4]: directly enhanced inactivation of purified factor Va; also recorded: enhances factor Va inactivation

galactosylceramide [GalCer]
enhancement of factor Va inactivation ([2]; above 10 μg/ml of total lipid, 5 and 10% glycolipid in PC/PS vesicles): enhanced factor Va inactivation by APC/protein C like GlcCer in PC/PS vesicle
effect on factor Va inactivation compared with GlcCer in PC/PS ([2]; below 10 μg/ml): not as well as GlcCer in PC/PS
effect on factor Va inactivation by APC:protein S, glycolipid incorporated into PC/PS vesicles (overall statement) [2]: significantly directly enhance inactivation
anticoagulant response of plasma to APC:protein S (clotting time prolongation, modified PT assay) [3]: did not enhance APC:protein S action; also recorded: inactive
effect on baseline clotting times [3]: no effect on baseline clotting times

lactosylceramide [LacCer]
enhancement of factor Va inactivation by APC/protein S [2, 5]: little like GlcCer
factor Va inactivation reached [2, 7]: up to 90%
enhancement of factor Va inactivation by APC/protein S [2, 7]: dramatically enhanced factor Va inactivation
effect on factor Va inactivation by APC:protein S, glycolipid incorporated into PC/PS vesicles (overall statement) [2]: significantly directly enhance inactivation
anticoagulant response of plasma to APC:protein S (clotting time prolongation, modified PT assay) [3]: much lower activity; also recorded: does not possess this anticoagulant property

OC[C@H]1OC(O)[C@H](O)[C@@H](O)[C@@H]1O (stereo partly drawn) [D-Glc, reference compound]
effect on APC:protein S anticoagulant response ([3]; data not shown): Neither D-Glc alone nor ceramide alone (0-100 mg/ml) affected
anticoagulant response of plasma to APC:protein S (clotting time prolongation, modified PT assay) [3]: neither D-Glc alone nor ceramide alone was anticoagulantly active

globotetraosylceramide [Gb4Cer]
effect on factor Va inactivation by APC:protein S, glycolipid incorporated into PC/PS vesicles (overall statement) [2]: much weaker effect

globotriaosylceramide [Gb3Cer]
enhancement of factor Va inactivation by APC/protein S [2, 5]: enhanced inactivation of factor Va significantly even at 1 μg/ml
enhancement of factor Va inactivation by APC/protein S [2, 6]: enhanced much more
effect on factor Va inactivation by APC:protein S, glycolipid incorporated into PC/PS vesicles (overall statement) [2]: significantly directly enhance inactivation
anticoagulant response of plasma to APC:protein S (clotting time prolongation, modified PT assay) [3]: activity very similar to GlcCer; also recorded: approximately equally active; also recorded: enhanced

ceramide [reference compound]
effect on APC:protein S anticoagulant response ([3]; data not shown): Neither D-Glc alone nor ceramide alone (0-100 mg/ml) affected
anticoagulant response of plasma to APC:protein S (clotting time prolongation, modified PT assay) [3]: neither D-Glc alone nor ceramide alone was anticoagulantly active
